{"source": "patent US7128912B2", "about": "“Fibronectin binding protein compositions and methods of use” (The Texas A&M University System, priority 1997, dated 2006)", "molecules": {"B1": {"name": "modified rFnBD-D: rFnBD-D chemically modified with EDC (protein)", "chain": "GQNSGNQSFEEDTEEDKPKYEQGGNIVDIDFDSVPQIHGQNKGNQSFEEDTEKDKPKYEHGGNIIDIDFDSVPHIHGFNKHTEIIEEDTNKDKPSYQFGGHNSVDFEEDTLPKVSGQNEGQQTIEEDTTPPIVP", "modifications": "left off: small tags and cut ends", "notes": "rFnBD-D chemically modified with EDC"}, "B2": {"name": "native rFnBD-D: recombinant version of the S. aureus Fn-binding MSCRAMM repeat domain (protein)", "chain": "B1 chain", "modifications": "left off: small tags and cut ends"}}, "data": [{"system": "S. aureus strain Cowan binding to immobilized fibronectin", "assay": "Inhibition of biotinylated S. aureus binding to immobilized fibronectin by synthetic peptides (ELISA)", "format": "cell-based, Staphylococcus aureus", "conditions": "250 μg peptide (FIG. 3B)", "method": "(§1) FIG. 2A, FIG. 2B and FIG. 2C. Inhibition of S. aureus binding to immobilized fibronectin by wild-type and mutant D3 peptides 1 through 21 (Table 3). NP indicates the amount of adherent bacteria in the absence of inhibitor. FIG. 2A. Peptides tested at 5 μg/well. FIG. 2B. Peptides tested at 50 μg/well. FIG. 2C. Peptides tested at 250 μg/well.\n(§2) FIG. 3A and FIG. 3B. FIG. 3A. Inhibition of S. aureus binding to immobilized fibronectin by wild-type peptides D1 and D2 and mutant derivatives. NP indicates the amount of adherent bacteria in the absence of inhibitor. All peptides were tested at 10 μg/well. FIG. 3B. Inhibition of S. aureus binding to immobilized fibronectin by wild-type peptides D1. D2 and DU and mutant derivatives. NP indicates the amount of adherent bacteria in the absence of inhibitor. All peptides were tested at 250 μg/well.\n(§3) S. aureus strain Cowan was cultured under constant rotation for 15 h at 37° C. in brain heart infusion (BHI; Difco) broth. Bacteria were harvested by centrifugation, resuspended in a bicarbonate buffer (50 mM NaHCO3, pH 8.5) to a final density of 10^10 cells/ml determined by comparing the absorbance at 600 nm of the sample with a previously prepared standard curve relating A600 to cells counted in a Petroff Hausser chamber. Bacterial cells were labeled with biotin by the addition of 100 μl of 1% NHS-biotin/ml of bacterial suspension (Pierce, Rockford, Ill.) in N,N-dimethylformamide. The staphylococcal cells were incubated with the NHS-biotin for 2 h at room temperature with constant rotation. The biotinylation reaction was stopped by removing the supernatant after centrifugation of the bacterial cells. The bacteria were then washed three times in PBS to remove unincorporated biotin. The bacterial cell suspensions were then adjusted to 1×10^10 cells/ml and the cells were stored at 4° C. in PBS, pH 7.4. To prevent unbiotinylated bacteria from growing and to reduce background, sodium azide and 0.1% BSA were added.\n(§4) A series of peptides, based on the D3 repeat of S. aureus FnBPA, were synthesized to contain a proline residue at each position throughout the entire sequence (i.e., proline scan; Table 3). The mutated peptides were initially tested for their ability to inhibit biotinylated S. aureus binding to immobilized fibronectin. Wells on a 96-well Immulon II plate were coated with […] of a 30 μg/ml solution of purified Fn, either for 2 hr at room temperature or overnight at 4° C. Wells were washed three times with 1× phosphate buffered saline (PBS)-0.05% Tween-80 and blocked for 1 hr with PBS containing 0.01% Tween-80 and 1% BSA. After 1 hr, wells were washed again with PBS containing 0.05% Tween-80. Synthetic peptides were diluted to 5 mg/ml concentration in 1×PBS and tested at a concentration of 5 (FIG. 2A), 50 (FIG. 2B), or 250 μg/well (FIG. 2C). A volume of […] of the synthetic peptide was added to each well, after 15–25 min, followed by […] of biotinylated S. aureus cells. The plates were incubated for one hour at room temperature with slight agitation on a shaker. After 1 hr the wells were washed with PBS-0.05% Tween-80 and then incubated 30 min in 1:5000 dilution of secondary antibody streptavidin alkaline phosphatase. After 30 min, wells were washed again and developed with diethanolamine containing p-nitrophenyl phosphate (PNPP; 1 mg/ml) for 30 min at room temperature. The reaction was monitored at 405 nm.", "values": [{"molecule": "ADVVEYEEDTNPGPGQVTTESNLVEFDEEST [DU-14P]", "inhibitory activity compared to the wild type peptides": "inhibitory activity was detected"}, {"molecule": "ADVVEYEEDTNPPGGQVTTESNLVEFDEEST [DU-13P]", "inhibitory activity compared to the wild type peptides": "virtually no inhibitory activity"}, {"molecule": "QNKGNQSFEEDTEKDKPKYEHPGNIIDIDFDSVPHIHG [D2–22P]", "inhibitory activity compared to the wild type peptides": "virtually no inhibitory activity"}, {"molecule": "QNSGNQSFEEDTEEDKPKYEQPGNIVDIDFDSVPQIHG [D1–22P]", "inhibitory activity compared to the wild type peptides": "inhibitory activity was detected"}]}, {"system": "S. aureus strain Cowan binding to immobilized fibronectin", "assay": "Inhibition of biotinylated S. aureus binding to immobilized fibronectin by synthetic peptides (ELISA)", "format": "cell-based, Staphylococcus aureus", "conditions": "FIG. 2C, peptides at 250 μg/well; proline scan of D3", "method": "as §1, §2, §3, §4", "values": [{"molecule": "KASYQFGGHNSVDFEEDTLPK [compound 2]", "ability of mutant D3 peptides to inhibit S. aureus binding to Fn": "inhibitory activity of peptides increased"}, {"molecule": "KPPYQFGGHNSVDFEEDTLPK [compound 3]", "ability of mutant D3 peptides to inhibit S. aureus binding to Fn": "inhibitory activity of peptides increased"}, {"molecule": "KPSPQFGGHNSVDFEEDTLPK [compound 4]", "ability of mutant D3 peptides to inhibit S. aureus binding to Fn": "decreased ability to inhibit S. aureus binding to Fn"}, {"molecule": "KPSYQFGGHNPVDFEEDTLPK [compound 11]", "ability of mutant D3 peptides to inhibit S. aureus binding to Fn": "inhibitory activity of peptides increased"}, {"molecule": "KPSYQFGGHNSVDFEEDPLPK [compound 18]", "ability of mutant D3 peptides to inhibit S. aureus binding to Fn": "enhanced S. aureus Fn binding ability"}, {"molecule": "KPSYQFGGHNSVDFEEDTLPP [compound 21]", "ability of mutant D3 peptides to inhibit S. aureus binding to Fn": "enhanced S. aureus Fn binding ability"}, {"molecule": "KPSYQFGGHNSVDFEEDTPPK [compound 19]", "ability of mutant D3 peptides to inhibit S. aureus binding to Fn": "enhanced S. aureus Fn binding ability"}, {"molecule": "KPSYQFGGHNSVDFEEPTLPK [compound 17]", "ability of mutant D3 peptides to inhibit S. aureus binding to Fn": "enhanced S. aureus Fn binding ability"}, {"molecule": "KPSYQFGGHNSVDFEPDTLPK [compound 16]", "ability of mutant D3 peptides to inhibit S. aureus binding to Fn": "enhanced S. aureus Fn binding ability"}, {"molecule": "KPSYQFGPHNSVDFEEDTLPK [compound 8]", "ability of mutant D3 peptides to inhibit S. aureus binding to Fn": "inhibitory activity of peptides increased"}, {"molecule": "KPSYQFPGHNSVDFEEDTLPK [compound 7]", "ability of mutant D3 peptides to inhibit S. aureus binding to Fn": "decreased ability to inhibit S. aureus binding to Fn"}, {"molecule": "PPSYQFGGHNSVDFEEDTLPK [compound 1]", "ability of mutant D3 peptides to inhibit S. aureus binding to Fn": "inhibitory activity of peptides increased"}]}, {"system": "S. aureus strain Cowan binding to immobilized fibronectin", "assay": "Inhibition of biotinylated S. aureus binding to immobilized fibronectin by synthetic peptides (ELISA)", "format": "cell-based, Staphylococcus aureus", "conditions": "low concentration, 10 μg peptide (FIG. 3A)", "method": "as §1, §2, §3, §4", "values": [{"molecule": "QNKGNQSFEEDTEKDKPKYEHPGNIIDIDFDSVPHIHG [D2–22P]", "inhibitory activity compared with control samples (no peptide)": "no inhibitory activity"}, {"molecule": "QNSGNQSFEEDTEEDKPKYEQPGNIVDIDFDSVPQIHG [D1–22P]", "inhibitory activity compared with control samples (no peptide)": "no inhibitory activity"}]}, {"system": "S. aureus", "assay": "Inhibition of Fn binding to S. aureus (rFnBD-D, EDC-modified rFnBD-D, immune IgG)", "format": "cell-based, Staphylococcus aureus", "conditions": "not given", "text": "Based on this observation, the inventors hypothesized that only Fn-binding MSCRAMMs that lack binding activity should lead to blocking antibodies. A recombinant version of the Fn-binding MSCRAMM rFnBD-D was chemically modified with EDC as previously described (McGavin et al., 1991) and tested for its ability to inhibit Fn binding to S. aureus. […] The chemically modified rFnBD-D was then used to immunize rabbits. […] With efficiencies of approximately 98%, chemical modification had the advantage of providing a quick and efficient method for probing entire classes of amino acids. However, an inherent disadvantage in this global approach is that the contribution to binding of individual amino acids was not detected.", "values": [{"molecule": "B1", "inhibition of Fn binding to S. aureus": "no inhibitory activity"}, {"molecule": "B2", "inhibition of Fn binding to S. aureus": "inhibited Fn binding to S. aureus in a dose-dependent manner"}]}, {"system": "S. aureus", "assay": "not given", "conditions": "McGavin et al., 1991; cited from earlier work", "values": [{"molecule": "QFGGHNSVDFEEDT [D320-33]", "inhibition of binding of Fn to S. aureus / Fn-binding function": "could not inhibit binding of Fn to S. aureus"}]}]}
